Patent publication US20250163122A1, “COMPOSITIONS AND METHODS FOR TREATING AIRWAY MUCUS DYSFUNCTION” (BOARD OF REGENTS, THE UNIVERSITY OF TEXAS SYSTEM, priority 2022, published 2025)
Where a SMILES comes first, the peptide text is derived from it. Bridges are numbered along the chain shown (N, C = ends). [ ]: non-standard residue; d: D form. S5 = C=CCCC[C@](C)(N)C(=O)O

Tests used:
neuronal SNAREs only = experiment: Single vesicle content mixing assay, neuronal SNAREs only (VAMP2 vesicles); assay type: biochemical; conditions: 10 μM peptide; raw count
Excerpt: For single vesicle content mixing assay, the lipid composition of the SV, SG, VAMP2, or VAMP8 vesicles was phosphatidylcholine (PC) (48%), phosphatidylethanolamine (PE) (20%), phosphatidylserine (PS) (12%), and cholesterol (20%); for both the neuronal and airway PM vesicles the lipid composition was Brain Total Lipid Extract supplemented 3.5 mol % PIP2, and 0.1 mol % biotinylated phosphatidylethanolamine (PE). The reconstitution method for neuronal PM and SV vesicles was described in detail previously (see Lai et al., 2017; Kyoung et al., 2011; and Lai et al., 2014). The same methods were used for airway PM, SG, VAMP2, and VAMP8 vesicles. […] A 3-5 fold excess of SNAP-25A or SNAP-23 (with respect to Stx1A or Stx3) and 3.5 mol % PIP2 were added to the protein-lipid mixture for neuronal or airway PM vesicles. […] For the preparation of SV, SG, VAMP2, or VAMP8 vesicles for single vesicle content mixing assay, 50 mM sulforhodamine B (Thermo Fisher Scientific) was added to the protein-lipid mixture. The vesicles subsequently formed during size exclusion chromatography using a Sepharose CL-4B column, packed under near constant pressure by gravity with a peristaltic pump (GE Healthcare) in a 5.5 ml column with a 5 ml bed volume that was equilibrated with buffer V (20 mM HEPES, pH 7.4, 90 mM NaCl) supplemented with 20 μM EGTA and 0.1% 2-mercaptoethanol. The eluent was subjected to dialysis into 21 of detergent-free buffer V supplemented with 20 μM EGTA, 0.1% 2-mercaptoethanol, 5 g of Bio-beads SM2 (Bio-Rad) and 0.8 g/L Chelex 100 resin (Bio-Rad). After 4 hours, the buffer was exchanged with 21 of fresh buffer V supplemented with 20 μM EGTA, 0.1% 2-mercaptoethanol and Bio-beads, and the dialysis continued for another 12 h (overnight). […] For ensemble lipid mixing assay, the reconstitution method is the same as that for the single vesicle content mixing assay, except that 50 mM sulforhodamine B was omitted for all the steps. Single vesicle content mixing experiments. All single vesicle fusion and single molecule experiments were performed on a prism-type total internal reflection fluorescence (TIRF) microscope using 532 nm (green) laser (CrystaLaser) excitation. Two observation channels were created by a 640 nm single-edge dichroic […]36, Shemrock): one channel was used for the fluorescence emission intensity of the content dyes and the other channel for that of the Cy5 dye that are part of the injected Ca^2+-solution. The two channels were recorded on two adjacent rectangular areas (45×90 m^2) of a charge-coupled device (CCD) camera (iXon+DV […], Andor Technology). The imaging data were recorded with the […] software developed by Taekjip Ha, Johns Hopkins University, Baltimore. Flow chambers were assembled by creating a “sandwich” consisting of a quartz slide and a glass coverslip that were both coated with polyethylene glycol (PEG) molecules consisting 0.1% (w/v) biotinylated-PEG except when stated otherwise, and using double-sided tape to create up to five flow-chambers. The single vesicle content mixing assay described in Lai et al. (2014) was used to monitor vesicle-vesicle association, Ca^2+-independent, and Ca^2+-triggered fusion. The surface of the quartz slides was passivated by coating the surface with polyethylene glycol (PEG) molecules which alleviated non-specific binding of vesicles. […]

Syt1 C2B = Syt1 C2B (Rattus norvegicus, UniProt P21707); experiment: Bulk fluorescence anisotropy binding, Syt1 C2B; conditions: Cy3 labeled peptide
Sequence of Syt1 C2B (P21707 271-421): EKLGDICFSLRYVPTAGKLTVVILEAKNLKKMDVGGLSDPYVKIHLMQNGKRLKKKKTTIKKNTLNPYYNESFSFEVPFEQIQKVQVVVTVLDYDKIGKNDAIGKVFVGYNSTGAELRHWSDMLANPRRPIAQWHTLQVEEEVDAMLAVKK
Method: (§1) Bulk fluorescence anisotropy measurements. In the bulk fluorescence anisotropy experiments, the P0 and SP9 peptides were labeled with the fluorescent dye Cy3 at the C-terminus. Anisotropy was measured with a Tecan Infinite […] fluorimeter using an excitation wavelength of 530±5 nm and emission wavelength of 580±5 nm at 27.2° C. The fluorescent dye labeled samples were diluted to 10 nM concentration in TBS (20 mM Tris, pH 7.5, 150 mM NaCl, 0.5 mM TCEP) for optimal read out.

Syt2 C2B = Syt2 C2B (Rattus norvegicus, UniProt P29101); experiment: Bulk fluorescence anisotropy binding, Syt2 C2B; conditions: Cy3 labeled peptide
Sequence of Syt2 C2B (P29101 272-422): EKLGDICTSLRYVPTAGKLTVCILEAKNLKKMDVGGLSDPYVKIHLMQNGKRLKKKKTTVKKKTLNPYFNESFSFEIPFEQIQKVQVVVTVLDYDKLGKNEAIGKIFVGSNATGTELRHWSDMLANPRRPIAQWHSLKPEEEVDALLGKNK
Method: as §1

Compound: CC[C@H](C)[C@H](NC(=O)[C@]1(C)CCCC=CCCC[C@](C)(NC(=O)[C@H](CCC(=O)O)NC(=O)[C@H](CCC(=O)O)NC(C)=O)C(=O)N[C@@H](CCCCN)C(=O)N[C@@H](CC(=O)O)C(=O)N[C@@H](C)C(=O)N1)C(=O)N[C@@H](CCCNC(=N)N)C(=O)N[C@@]1(C)CCCC=CCCC[C@@](C)(C(=O)N[C@@H](CC(=O)O)C(=O)N[C@@H](CCC(=O)O)C(=O)N[C@@H](CCC(N)=O)C(=O)N[C@@H](CS)C(N)=O)NC(=O)[C@H](CCSC)NC(=O)[C@H](C(C)C)NC(=O)[C@H](CC(C)C)NC1=O [SP9, Ac-EE(S5)KDA(S5)IR(S5)LVM(S5)DEQC-amide] (Ac-EE[S5]KDA[S5]IR[S5]LVM[S5]DEQC-NH2; staple 3-7, 10-14)
- Ca2+ independent fusion events (neuronal SNAREs only): 336

Compound: Ac-SKD(S5)GIR(S5)LV(S5)LDE(S5)GEQL-amide (Ac-SKD[S5]GIR[S5]LV[S5]LDE[S5]GEQL-NH2; staple 11-15, 4-8; SMILES CC[C@H](C)[C@@H]1NC(=O)CNC(=O)[C@@](C)(NC(=O)[C@H](CC(=O)O)NC(=O)[C@H](CCCCN)NC(=O)[C@H](CO)NC(C)=O)CCCC=CCCC[C@@](C)(C(=O)N[C@@H](CC(C)C)C(=O)N[C@H](C(=O)N[C@@]2(C)CCCC=CCCC[C@@](C)(C(=O)NCC(=O)N[C@@H](CCC(=O)O)C(=O)N[C@@H](CCC(N)=O)C(=O)N[C@@H](CC(C)C)C(N)=O)NC(=O)[C@H](CCC(=O)O)NC(=O)[C@H](CC(=O)O)NC(=O)[C@H](CC(C)C)NC2=O)C(C)C)NC(=O)[C@H](CCCNC(=N)N)NC1=O) [SP10]
- Ca2+ independent fusion events (neuronal SNAREs only): 341

Compound: Ac-SKD(S5)GIR(S5)LVMLDE(S5)GEQ(S5)DR-amide (Ac-SKD[S5]GIR[S5]LVMLDE[S5]GEQ[S5]DR-NH2; staple 15-19, 4-8; SMILES CC[C@H](C)[C@@H]1NC(=O)CNC(=O)[C@@](C)(NC(=O)[C@H](CC(=O)O)NC(=O)[C@H](CCCCN)NC(=O)[C@H](CO)NC(C)=O)CCCC=CCCC[C@@](C)(C(=O)N[C@@H](CC(C)C)C(=O)N[C@H](C(=O)N[C@@H](CCSC)C(=O)N[C@@H](CC(C)C)C(=O)N[C@@H](CC(=O)O)C(=O)N[C@@H](CCC(=O)O)C(=O)N[C@@]2(C)CCCC=CCCC[C@@](C)(C(=O)N[C@@H](CC(=O)O)C(=O)N[C@@H](CCCNC(=N)N)C(N)=O)NC(=O)[C@H](CCC(N)=O)NC(=O)[C@H](CCC(=O)O)NC(=O)CNC2=O)C(C)C)NC(=O)[C@H](CCCNC(=N)N)NC1=O) [SP1]
- Ca2+ independent fusion events (neuronal SNAREs only): 245

Compound: Ac-SKDA(S5)IRT(S5)VM(S5)DEQ(S5)EQL-amide (Ac-SKDA[S5]IRT[S5]VM[S5]DEQ[S5]EQL-NH2; staple 12-16, 5-9; SMILES CC[C@H](C)[C@@H]1NC(=O)[C@@](C)(NC(=O)[C@H](C)NC(=O)[C@H](CC(=O)O)NC(=O)[C@H](CCCCN)NC(=O)[C@H](CO)NC(C)=O)CCCC=CCCC[C@@](C)(C(=O)N[C@H](C(=O)N[C@@H](CCSC)C(=O)N[C@@]2(C)CCCC=CCCC[C@@](C)(C(=O)N[C@@H](CCC(=O)O)C(=O)N[C@@H](CCC(N)=O)C(=O)N[C@@H](CC(C)C)C(N)=O)NC(=O)[C@H](CCC(N)=O)NC(=O)[C@H](CCC(=O)O)NC(=O)[C@H](CC(=O)O)NC2=O)C(C)C)NC(=O)[C@H]([C@@H](C)O)NC(=O)[C@H](CCCNC(=N)N)NC1=O) [SP4]
- Ca2+ independent fusion events (neuronal SNAREs only): 356

Compound: EESKDAGIRTLVMLDEQGEQLD [Peptide P0, non-stapled SNAP-25A fragment used as a control, reference compound]
- binding to C2B domain of Syt1 (Syt1 C2B): no binding
- binding to C2B domain of Syt2 (Syt2 C2B): no binding
- Ca2+ independent fusion events (neuronal SNAREs only): 104
